# Reference: US20250122253A1, “REGULATING MICROTUBULE DYNAMICS AS A THERAPEUTIC TARGET FOR NERVE REPAIR” (City University of Hong Kong, priority 2023, published 2025)
# Legend:
# [1] = tested on: regenerating sensory axons of the injured sciatic nerve; experiment: Sciatic nerve pinch test after sciatic nerve crush injury; format: in vivo, mice; settings: 3 days post-injury
# Procedure: Sciatic nerve crush or transection injury was performed in anesthetized adult male C57BL/6 or Fmn2^−/− mice (8-12 weeks old) as previously described. Briefly, the left sciatic nerve was exposed at mid-thigh level. For crush injury, the exposed nerve was crushed with smooth forceps (Dumont #5/45 Forceps, Fine Science Tools) at the sciatic notch for 15 seconds. For sciatic nerve transection, an epineural suture was first made at the level of external rotator muscle, just distal to the sciatic notch. The exposed nerve was then transected using a pair of ophthalmic microscissors just distal to the suture. After injury, the overlying muscle and skin were sutured using a 5-0 suture (Ethilon), and the mice were allowed to recover on a heated pad, and returned to their home cages after recovery. The surgeon was blinded to the genotypes and treatments.
# For in vivo gene silencing of Fmn2 and/or Hdac5 in DRGs, AAV2/9-Fmn2-shRNA and AAV2/9-Hdac5-shRNA at a titer of 5×10^12 vg/mL (OBIO Technology) were injected into the sciatic nerve directly through a glass micropipette using a microinjector (Harvard Apparatus) two weeks before sciatic nerve crush injury. The mice were then subjected to sciatic nerve crush injury and sciatic nerve pinch test (FIG. 4) and animal behavioural assessment (FIG. 15). The expression of shRNAs was under the control of the U6 promoter, and the expression of the reporter gene eGFP was under the control of the CAG promoter. AAV2/9-scr-shRNA (Packgene) was used as a negative control (see FIG. 22 for the shRNA sequences). On a separate batch of animals, the knockdown efficiency in DRGs was assessed by Western blot analysis in AAV2-Fmn2-shRNA and AAV2-Hdac5-shRNA mice two weeks after the AAV injection (FIGS. S8B and S9). […]
# Sciatic nerve pinch test was performed in the ipsilateral side 3 days after sciatic nerve crush injury. […] The distance (in mm) representing the length of axonal regrowth was recorded from the crushed site to the most distal point of sciatic nerve whereas initial withdrawal reflex was observed after pinching. […]
# pHDAC5 = experiment: Western blot of pHDAC5 in sciatic nerve segments 0-6 mm distal to the crush site; format: in vivo, mice; settings: regenerating axons of sciatic nerves 3 days post-injury
# Procedure: Ipsilateral L4/5 DRG neurons were harvested at various time points following sciatic nerve injury as indicated. Sciatic nerves were harvested 3 days after crush injury and segmented into 0-6 mm distal to the crush site. Each protein sample was pooled from 3 mice. DRG neurons and segmented sciatic nerves were mechanically dissociated with protein lysis buffer, and subjected to measurement of protein concentration using protein BCA assay (Pierce). Protein lysate (30 μg) was separated on 4-12% NuPAGE Tris-Glycine precast gel (Invitrogen). Protein was then transferred onto a PVDF membrane (Bio-Rad) and blocked with 5% non-fat milk (Bio-Rad) in TBS-T. The membrane was incubated with anti-FMN2 (1:500; ProteinTech), anti-phosphorylated HDAC5 (1:500, ThermoFisher), anti-HDAC5 (1:500, Novus Biologicals), anti-acetylated tubulin (1:10,000; Sigma-Aldrich), anti-NeuN (1:500; Millipore), anti-SOX10 (1:500; Abcam), anti-IBA-1 (1:1,000; Wako), anti-GFP (1:1,000; Cell Signaling), and anti-GAPDH antibodies (1:2,000; ProteinTech) as loading controls. The membrane was incubated with secondary antibody conjugated with horseradish peroxidase (1:2,000; Thermo-Fisher). Signals were detected using West Femto Maximum Sensitivity Substrate Kit (Thermo Scientific). […] Band intensities were measured using Image Lab software (Bio-Rad). […]
# axotomized DRG neurons = experiment: Neurite outgrowth assay in dissociated DRG cultures; format: cell-based, mice; settings: increasing dose; neurite outgrowth increased almost linearly
# Procedure: Primary cultures of dissociated DRG neurons were prepared from adult male C57BL/6 or Fmn2^−/− mice (8-12 weeks old) and their age-matched WT littermates as described. Briefly, DRGs were dissected out from the mice and mildly digested in collagenase/dispase II (Roche Diagnostics) solution, trypsinized and mechanically dissociated using flame polished Pasteur pipettes with three different diameters. DRG neurons were incubated in full NB medium.
# For ex vivo DRG explant culture, non-overlapping quadrant images were taken from each DRG explant, and total neurite length was measured using automated WIS-NeuroMath software (Weizmann Institute of Science). Data were obtained from at least 3 separate experiments with n=8 explants per dose. […] Total neurite length and average longest neurite length were quantified using automated WIS-NeuroMath software (Weizmann Institute of Science). Data was obtained from 3 independent experiments repeated in duplicates. βIII-tubulin-positive DRG neurons with intact neurites adjacent to the neuronal cell bodies were counted as healthy neurons for neurite outgrowth assay.
structure (smiles),measurement,setting,value
Cc1cc(C)cc(OCC2CNC(=O)O2)c1 (stereo not shown) [metaxalone],distal sensory axonal regrowth (length),"[1]; 0.25 μg/μl to the site of injury immediately after crush, twice per day, 3 consecutive days",4.82±0.32 mm
same,"axonal regrowth (length), delayed treatment","[1]; treatment delayed by 24 hours, 0.25 μg/μl to site of injury for 2 consecutive days",4.50±0.25 mm
same,protein expression of pHDAC5,pHDAC5,substantial increase
same,concentration at which neurite outgrowth reaches a plateau,axotomized DRG neurons,20 µM
